Assay results: patent publication US11225480B2, “Malic enzyme inhibitors” (SUN PHARMA ADVANCED RESEARCH COMPANY LTD, priority 2019, dated 2022)
Counter-ions that a name gives are not always drawn.

Target: T1, human ME3 enzyme (Homo sapiens, UniProt Q16798)
T1 sequence (Q16798 1-604): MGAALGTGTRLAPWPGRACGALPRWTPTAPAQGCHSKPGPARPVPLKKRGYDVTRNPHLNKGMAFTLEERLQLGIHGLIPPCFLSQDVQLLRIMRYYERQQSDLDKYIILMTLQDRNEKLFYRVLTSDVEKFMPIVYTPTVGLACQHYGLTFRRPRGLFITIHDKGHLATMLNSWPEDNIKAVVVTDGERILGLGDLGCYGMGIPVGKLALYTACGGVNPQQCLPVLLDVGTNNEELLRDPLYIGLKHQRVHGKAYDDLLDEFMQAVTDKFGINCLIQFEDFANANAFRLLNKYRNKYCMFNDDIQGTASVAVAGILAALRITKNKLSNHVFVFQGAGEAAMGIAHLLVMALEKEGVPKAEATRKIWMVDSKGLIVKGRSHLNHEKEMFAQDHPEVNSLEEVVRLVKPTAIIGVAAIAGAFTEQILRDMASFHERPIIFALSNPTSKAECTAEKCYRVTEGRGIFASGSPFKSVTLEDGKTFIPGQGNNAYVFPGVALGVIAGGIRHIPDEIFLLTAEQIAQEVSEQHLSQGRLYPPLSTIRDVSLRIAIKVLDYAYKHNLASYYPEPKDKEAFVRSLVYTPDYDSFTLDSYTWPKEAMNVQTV
Assay: ME3 inhibition assay (diaphorase/resazurin coupled fluorescence)
Assay type: biochemical
Settings: 10 μM compound concentration; read-out: Malic Enzyme 3 % inhibition (10 μM)
Description: ME3 catalyzes the oxidative decarboxylation of malate to pyruvate with conversion of the co-factor β-NADP+ to NADPH. In the fluorescence assay, a coupled reaction is set up wherein an enzyme, Diaphorase, utilizes NADPH generated by ME3, to convert the dye resazurin to a fluorescent molecule resorufin.
The enzyme activity inhibition assay is set up in a 200 μL final reaction volume in a 96-well plate. As per the experimental design, 2 μL of the test compounds at 100× the desired concentration (10 μM) in DMSO were added to the respective wells with 178 μL of assay buffer (50 mM Tris-HCl pH 7.5, 10 mM MnCl2, 3 mM L-malate, 50 μM Resazurin and 0.025 mg/ml Diapharose). The 96-well plate was incubated on a plate shaker at room temperature for 15 minutes protected from light. The well contents were gently mixed by adding 10 μL of 20 nM human ME3 enzyme to the wells and the plate was incubated on a shaker at room temperature for 5 minutes protected from light. Suitable enzyme only and no enzyme controls were included in the experiment. The enzyme reaction was started by adding 10 μL of 1 mM D-NADP+. The reaction was gently mixed and the plate was initially left on a shaker at room temperature for ˜7 minutes protected from light. Later, the plate was incubated without shaking at room temperature for 3 hours. At the end of 3 hours, the fluorescence of the wells was measured at excitation 540 nm and emission 600 nm.

| SMILES | inhibition at 10 µM |
| --- | --- |
| COc1cc(CC(=O)N2CCN(c3ccc(O)cc3)CC2)cc(OC)c1OC [I.3, 1-[4-(4-Hydroxy-phenyl)-piperazin-1-yl]-2-(3,4,5-trimethoxy-phenyl)-ethanone] | > 90% |
| O=C(Cc1ccc(O)cc1)N1CCN(c2ccc(O)cc2)CC1 [I.4, 2-(4-Hydroxy-phenyl)-1-[4-(4-hydroxy-phenyl)-piperazin-1-yl]-ethanone] | > 90% |
| O=C(Cc1ccc(C(F)(F)F)cc1)N1CCN(c2ccc(O)cc2)CC1 [I.28, 1-[4-(4-Hydroxy-phenyl)-piperazin-1-yl]-2-(4-trifluoro-methyl-phenyl)-ethanone] | > 90% |
| O=C(Cc1ccc(F)cc1F)N1CCN(c2ccc(O)cn2)CC1 [I.91, 2-(2,4-Difluoro-phenyl)-1-[4-(5-hydroxy-pyridine-2-yl)-piperazin-1-yl]-ethanone] | > 90% |
| O=C(CSc1ccc([N+](=O)[O-])cn1)N1CCN(c2ccc(O)cn2)CC1 [I.97, 1-[4-(5-hydroxy-pyridin-2-yl)-piperazin-1-yl]-2-(5-nitro-pyridin-2-ylsulfanyl)-ethanone] | > 90% |
| O=C(CCC12CC3CC(CC(C3)C1)C2)N1CCN(c2ccc(O)cn2)CC1 [I.98, 3-(1-Adamantyl)-1-[4-(5-hydroxy-2-pyridyl)-piperazin-1-yl]propan-1-one] | > 90% |
| O=C(C(c1ccccc1)C1CCCCC1)N1CCN(c2ccc(O)cn2)CC1 (stereo not shown) [I.99, 2-Cyclo-hexyl-1-[4-(5-hydroxy-2-pyridyl)-piperazin-1-yl]-2-phenyl-ethanone] | > 90% |
| O=C(CCc1ccc(O)cc1)N1CCN(c2ccc(O)cn2)CC1 [I.100, 3-(4-Hydroxy-phenyl)-1-[4-(5-hydroxy-pyridin-2-yl)-piperazin-1-yl]-propan-1-one] | > 90% |
| COc1ccc(CCC(=O)N2CCN(c3ccc(O)cn3)CC2)cc1 [I.101, 3-(4-Methoxy-phenyl)-1-[4-(5-hydroxy-pyridin-2-yl)-piperazin-1-yl]-propan-1-one hydrochloride] | > 90% |
| O=C(CCc1ccccc1Br)N1CCN(c2ccc(O)cn2)CC1 [I.102, 3-(2-Bromo-phenyl)-1-[4-(5-hydroxy-pyridin-2-yl)-piperazin-1-yl]-propan-1-one] | > 90% |
| O=C(CCc1ccc(Br)cc1)N1CCN(c2ccc(O)cn2)CC1 [I.103, 3-(4-Bromo-phenyl)-1-[4-(5-hydroxy-pyridin-2-yl)-piperazin-1-yl]-propan-1-one] | > 90% |
| COC(=O)C1C2CCC(O2)C1C(=O)N1CCN(c2ccc(O)cn2)CC1 (stereo not shown) [I.104, 3-[4-(5-Hydroxy-pyridin-2-yl)-piperazine-1-carbonyl]-7-oxa-bicyclo-[2.2.1]heptane-2-carboxylic acid methyl ester] | 70 to 89% |
| O=C(O)C1C2CCC(O2)C1C(=O)N1CCN(c2ccc(O)cn2)CC1 (stereo not shown) [I.105, 3-[4-(5-Hydroxy-pyridin-2-yl)-piperazine-1-carbonyl]-7-oxa-bicyclo-[2.2.1]heptane-2-carboxylic acid] | > 90% |
| O=C(C(=O)N1CCN(c2ccc(O)cn2)CC1)c1c[nH]c2ccccc12 [I.106, 1-[4-(5-Hydroxy-pyridin-2-yl)-piperazin-1-yl]-2-(1H-indol-3-yl)-ethane-1,2-dione] | > 90% |
| CN(C)c1ccc(CCC(=O)N2CCN(c3ccc(O)cn3)CC2)cc1 [I.108, 3-(4-Dimethyl-aminophenyl)-[4-(5-hydroxy-pyridin-2-yl)-piperazin-1-yl]-propan-1-one] | > 90% |
| COc1ccccc1CCC(=O)N1CCN(c2ccc(O)cn2)CC1 [I.109, 1-[4-(5-Hydroxy-pyridin-2-yl)-piperazin-1-yl]-3-(2-methoxy-phenyl)-propan-1-one] | > 90% |
| Cc1ccc(CCC(=O)N2CCN(c3ccc(O)cn3)CC2)cc1 [I.110, 1-[4-(5-Hydroxy-pyridin-2-yl)-piperazin-1-yl]-3-p-tolyl-propan-1-one] | > 90% |
| O=C(O)c1ccccc1C(=O)N1CCN(c2ccc(O)cn2)CC1 [I.111, 2-[4-(5-Hydroxy-pyridin-2-yl)-piperazine-1-carbonyl]-benzoic acid] | > 90% |
| O=C(CCC(c1ccccc1)c1ccccc1)N1CCN(c2ccc(O)cn2)CC1 [I.112, 1-[4-(5-Hydroxy-2-pyridyl)-piperazin-1-yl]-4,4-diphenyl-butan-1-one] | > 90% |
| O=C(c1cccc(-c2cccc3[nH]ccc23)c1)N1CCN(c2ccc(O)cn2)CC1 [I.113, [4-(5-hydroxypyridin-2-yl)-piperazin-1-yl]-[3-(1H-indol-4-yl)phenyl]methanone] | > 90% |
| COCCOc1ccc(CCC(=O)N2CCN(c3ccc(O)cn3)CC2)cc1 [I.114, 1-[4-(5-Hydroxy-pyridin-2-yl)-piperazin-1-yl]-3-[4-(2-methoxy-ethoxy)-phenyl]-propan-1-one dihydro-chloride] | > 90% |
| O=C(C(c1ccccc1)N1CCOCC1)N1CCN(c2ccc(O)cn2)CC1 (stereo not shown) [I.117, 1-[4-(5-hydroxy-2-pyridyl)piperazin-1-yl]-2-morpholino-2-phenyl-ethanone] | > 90% |
| O=C(C1CCCCC1)N1CCN(c2ccc(O)cn2)CC1 [I.118, Cyclohexyl-[4-(5-hydroxy-2-pyridyl)-piperazin-1-yl]methanone] | > 90% |
| O=C(C1CC1)N1CCN(c2ccc(O)cn2)CC1 [I.119, Cyclopropyl-[4-(5-hydroxy-2-pyridyl)-piperazin-1-yl]methanone] | > 90% |
| O=C(/C=C/C1CCCCC1)N1CCN(c2ccc(O)cn2)CC1 [I.120, (E)-3-Cyclo-hexyl-1-[4-(5-hydroxy-2-pyridyl)-piperazin-1-yl]prop-2-en-1-one] | > 90% |

Target: T2, human ME1 enzyme (Homo sapiens, UniProt P48163)
T2 sequence (P48163 1-572): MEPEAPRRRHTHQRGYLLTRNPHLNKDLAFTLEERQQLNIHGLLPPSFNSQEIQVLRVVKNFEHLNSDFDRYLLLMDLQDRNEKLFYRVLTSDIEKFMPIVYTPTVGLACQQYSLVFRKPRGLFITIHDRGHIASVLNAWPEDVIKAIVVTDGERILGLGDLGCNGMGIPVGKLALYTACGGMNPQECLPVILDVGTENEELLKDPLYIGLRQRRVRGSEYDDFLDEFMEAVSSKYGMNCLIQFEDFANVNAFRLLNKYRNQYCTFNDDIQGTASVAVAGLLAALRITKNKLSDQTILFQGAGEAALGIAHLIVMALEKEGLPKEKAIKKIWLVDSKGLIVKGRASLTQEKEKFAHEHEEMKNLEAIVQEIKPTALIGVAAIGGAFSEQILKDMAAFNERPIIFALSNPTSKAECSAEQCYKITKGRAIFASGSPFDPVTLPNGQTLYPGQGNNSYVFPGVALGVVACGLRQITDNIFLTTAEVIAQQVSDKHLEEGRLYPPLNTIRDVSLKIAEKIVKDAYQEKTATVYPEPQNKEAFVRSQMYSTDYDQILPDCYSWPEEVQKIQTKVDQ
Assay: ME1 inhibition assay (diaphorase/resazurin coupled fluorescence)
Assay type: biochemical
Settings: 10 μM compound concentration; read-out: Malic Enzyme 1 % inhibition (10 μM)
Description: ME1 catalyzes the oxidative decarboxylation of malate to pyruvate with conversion of the co-factor β-NADP+ to β-NADPH. In the fluorescence assay, a coupled reaction is set up where in an enzyme, Diaphorase, utilizes NADPH generated by ME1, to convert the dye resazurin to a fluorescent molecule resorufin. Resorufin has a characteristic fluorescence with excitation/emission at 540/600 nm (SLAS Discov., 2017 April 1:2472555217706649).
The enzyme activity inhibition assay is set up in a 200 μL final reaction volume in a 96-well plate. As per the experimental design, 2 μL of the compounds at 100× the desired concentration (10 μM) in DMSO were added to the respective wells with 178 μL of assay buffer (50 mM Tris-HCl pH 7.5, 10 mM MnCl2, 2 mM L-malate, 10 μM Resazurin and 0.01 mg/ml Diapharose). The 96-well plate was incubated on a plate shaker at room temperature for 15 minutes protected from light. The well contents were gently mixed by adding 10 μL of 20 nM human ME1 enzyme to the wells and the plate was incubated on a shaker at room temperature for 5 minutes protected from light. Suitable ‘enzyme only’ and ‘no enzyme’ controls were included in the experiment. The enzymatic reaction was started by adding 10 μL of 0.3 mM D-NADP+. The reaction was gently mixed and the plate was initially left on a shaker at room temperature for −7 minutes protected from light. Later, the plate was incubated without shaking at room temperature for 2 hours. At the end of 2 hours, the fluorescence of the wells was measured at excitation 540 nm and emission 600 nm. The % enzyme activity of the compounds is obtained by normalizing the data with enzyme only (100%) and no enzyme controls (0%) using GraphPad Prism software 7.04.

| SMILES | inhibition at 10 µM |
| --- | --- |
| COc1cc(CC(=O)N2CCN(c3ccc(O)cc3)CC2)cc(OC)c1OC [I.3, 1-[4-(4-Hydroxy-phenyl)-piperazin-1-yl]-2-(3,4,5-trimethoxy-phenyl)-ethanone] | > 90% |
| O=C(Cc1ccc(O)cc1)N1CCN(c2ccc(O)cc2)CC1 [I.4, 2-(4-Hydroxy-phenyl)-1-[4-(4-hydroxy-phenyl)-piperazin-1-yl]-ethanone] | > 90% |
| O=C(Cc1ccc(C(F)(F)F)cc1)N1CCN(c2ccc(O)cc2)CC1 [I.28, 1-[4-(4-Hydroxy-phenyl)-piperazin-1-yl]-2-(4-trifluoro-methyl-phenyl)-ethanone] | > 90% |
